Results on 3 compounds are retold here after US11834698B2, “Process for determining enzyme activity in a cell by activity-based reporter gene technology (ABRGT)” (INDIAN INSTITUTE OF SCIENCE EDUCATION AND RESEARCH, priority 2018, dated 2023).

Experiment [1] has as its target T1, caspase-3 GFPspark (Homo sapiens, UniProt P42574).
T1 sequence (P42574 29-175 limits assumed): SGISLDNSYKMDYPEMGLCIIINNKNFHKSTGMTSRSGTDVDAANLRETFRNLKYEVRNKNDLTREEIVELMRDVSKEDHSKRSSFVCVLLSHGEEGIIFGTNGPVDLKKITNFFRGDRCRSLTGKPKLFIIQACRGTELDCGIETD
T1 sequence (P42574 176-277 limits assumed): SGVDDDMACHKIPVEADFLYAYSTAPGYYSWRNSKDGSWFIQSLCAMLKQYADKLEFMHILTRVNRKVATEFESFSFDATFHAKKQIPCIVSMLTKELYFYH
Put plainly: AbRGT FRET imaging / acceptor photobleaching, caspase-3 GFPspark in MCF-7 cells. More on the design: host or cells: MCF-7, HeLa, HEK-293. The class given is cell-based. Particulars: MCF-7, STS 1 μM 4 h. How it is done: FIG. 2 depicts (a) a schematic representation of AbRGT in determining the specific activation of caspase-3 GFPspark tagged enzyme by FRET effect utilizing Rh-VAD-FMK (probe 1). (b) The fluorescence signal was collected in GFP, FRET and Rhodamine (Rh) channels. MCF-7 cells transfected with caspase-3 GFPspark treated with (i) 1 μM STS for 4 h or (ii) 1 μg/ml TRAIL for 5 h and then labelled with probe 1. (iii) Un-transfected MCF-7 cells were treated with 1 μM STS for 4 h and then labelled with the probe 1. MCF-7 cells transfected with enhanced green fluorescent protein (EGFP) plasmid treated (iv) with 1 μM STS or (v) without STS for 4 h and then labelled with probe 1, scale bar, […]. (c) FRET validation between GFPspark and rhodamine fluorophore using the acceptor photobleaching method. Images for GFP and rhodamine fluorescence signals were collected in GFP and FRET channels pre- and post-bleaching of rhodamine signals. (d) Quantification of change in GFP fluorescence intensity after rhodamine photo-bleaching in both unbleached control region and rhodamine bleached region, region of interest (ROI), area under the white square. Error bar represents the s.e.m for n=15 cells (*P<0.00001). Scale bar, 10 μm. a.u., arbitrary units.
FIGS. 6A and 6B depict time dependent activation of caspase-3 GFPspark in MCF-7 cells upon STS (1 μM) induction. MCF-7 cells transfected with 2 μg of caspase-3 GFPspark plasmid and treated with 1 μM of STS for 2, 6, and 8 h. Cells were then labelled with the probe 1 for an additional 2 h. […] FRET validation between GFPspark and rhodamine fluorophore using the acceptor photobleaching method for the MCF-7 cells with STS induction for 2, 6 and 8 h. I=intensity (a.u.), arbitrary units. The calculated FRET efficiency for 2, 6 and 8 h are 38, 43, and 36% respectively.
FIGS. 7A and 7B depict applying AbRGT for specific detection of active caspase-3 GFPspark using the Rh-DEVD-FMK (probe 2). Caspase-3 GFPspark (2 μg) overexpressing MCF-7 cells were treated with 1 μM of STS for 4 h and labelled with the probe 2 (1 μM). […] The rise in GFPspark intensity after rhodamine photobleaching in the background is insignificant as compared to the ROI, i.e., 68 a.u., with a calculated FRET efficiency of 35%.
FIG. 12 depicts confocal images of MCF-7 cells in GFP, FRET and Rh channel. Caspase-3 GFPspark transfected MCF-7 cells were treated with STS for 4 h and labelled (a) with or (b) without probe 1. Cells were pre-treated with (c) Z-VAD-FMK (50 μM) and (d) Q-VD-OPh (50 μM) pan-caspase inhibitors 3 h before the probe labelling.
(§1) Plasmids and transient transfection: GFPspark tagged plasmids; caspase-3 GFPspark tag (Cat: HG10050-ACG), caspase-7 GFPspark tag (HG10049-ACG), caspase-8 GFPspark (HG10078-ACG), caspase-9 GFPspark (HG11151-ACG) and cathepsin B GFPspark (HG10483-ACG) were procured from Sino Biological. For transfection, cells were seeded in a 6-well plate at a density of 0.4 million cells/well. At 60-70% confluency, cells were transiently transfected for 24 h at 37° C. with 1 μg of the GFPspark tagged plasmid DNA construct mixed with 5 μL of Lipofectamine 2000 (Invitrogen) according to the manufacturer's instructions. 24 h post-transfection, cells were visualized under the GFP filter for GFPspark expression under fluorescence microscope at 10× magnification.
Labelling of active caspases in apoptotic cells with FABP: After 24 h of transfection, cells were treated with STS (1 μM) drug or TRAIL (1 μg/ml) for apoptotic induction and incubated for 2, 4, 6 and 8 h at 37° C. in a humidified atmosphere of 5% CO2/95% air. Cells were gently scraped off from the surface at the end of apoptotic induction and centrifuged at 3000 rpm for 5 min. The cell pellet was resuspended in 300 μL of fresh DMEM containing 1 μM of probe for probe 2 and incubated for additional 2 h at 37° C. in a humidified atmosphere of 5% CO2. Cells were again centrifuged at 3000 rpm for 5 mins, and the supernatant was decanted. […]

Experiment [2] concerns caspase-3/7. Put plainly: Substrate-based reporter assay, CFP-DEVDR-YFP cleavage, live cell FRET. How it is done:
FIGS. 8A and 8B depict the time course of cleavage for CFP-DEVDR-YFP plasmid. Time is relative to the first frame taken after 8 h of STS treatment. […] The percentage rise in the CFP/YFP intensity ratio was 47%. Rise in CFP/YFP intensity ratio is an indirect measure of caspase-3/7 activation.
To rule out that the obtained FRET signal in [FIG. 2b (i)] is not because of random physical interaction between GFPspark and rhodamine dye, MCF-7 cells were transfected with a plasmid encoding for enhanced green fluorescent protein (EGFP). EGFP transfected MCF-7 cells were treated with STS (1 μM) for 4 h, labelled with the probe 1. […] In-gel fluorescence assay was also performed to validate the multiple off-targets labelling of probe 1 which has also been shown in the previous reports. […] The calculated FRET efficiency for (n=15 cells) is 35±1%. […] Caspase-3 activation was also monitored using probe 2 as fABP which is different from probe 1 in terms of peptide recognition sequence; DEVD in exchange for VAD as DEVD peptide sequence is more specific for caspases as compared to VAD. Probe 2 yielded a similar pattern of fluorescence signal in GFPspark, FRET and Rh channel as that of probe 1 [FIG. 7(a)]. The calculated FRET efficiency was 35% [FIG. 7(b)]. […] Acceptor photo-bleaching method was done to confirm the FRET signal, and the calculated FRET efficiency was 32±2% [FIG. 10 (a & b)].
In general terms: A reporter such as luciferase makes a cellular process visible.

Experiment [3] has as its system cleaved caspase-3 p17 fragment. In words: Western blot of cleaved caspase-3 p17 fragment in HeLa cells. The class given is cell-based. The conditions noted are these: STS 1 μM, after 12 h, 18 and 24 h. How it is done: FIG. 9 depicts a western blot analysis of cleaved caspase-3 p17 fragment after 18 and 24 h of STS (1 μM) treatment in HeLa cells. Lysate loading was done in triplicates. Double headed arrow representing 3 lanes with the same sample.
To rule out that the obtained FRET signal in [FIG. 2b (i)] is not because of random physical interaction between GFPspark and rhodamine dye, MCF-7 cells were transfected with a plasmid encoding for enhanced green fluorescent protein (EGFP). EGFP transfected MCF-7 cells were treated with STS (1 μM) for 4 h, labelled with the probe 1. […] In-gel fluorescence assay was also performed to validate the multiple off-targets labelling of probe 1 which has also been shown in the previous reports. […] The calculated FRET efficiency for (n=15 cells) is 35±1%. […] Caspase-3 activation was also monitored using probe 2 as fABP which is different from probe 1 in terms of peptide recognition sequence; DEVD in exchange for VAD as DEVD peptide sequence is more specific for caspases as compared to VAD. Probe 2 yielded a similar pattern of fluorescence signal in GFPspark, FRET and Rh channel as that of probe 1 [FIG. 7(a)]. The calculated FRET efficiency was 35% [FIG. 7(b)]. […] To confirm the reported results, the cleaved caspase-3 p17 fragment in immunoblotting was also detected by using active caspase-3 p17 antibody after […] of STS (1 μM) treatment [FIG. 9]. […]
In general terms: A western blot detects proteins with antibodies after separation by electrophoresis.

For experiment [4], the target named is T2, cathepsin B GFPspark (Homo sapiens, UniProt P07858).
T2 construct: GFPspark (C); host or cells: HEK-293
Put plainly: AbRGT FRET imaging / acceptor photobleaching, cathepsin B GFPspark in HEK-293 cells. In kind it is cell-based. Particulars: HEK-293, inhibitor 50 μM 1 h before probe 1 labelling, STS 4 h. Here is the method: FIG. 20 depicts confocal images of HEK-293 cells in GFP, FRET and Rh channel Cathepsin B GFPspark transfected HEK-293 cells were treated with STS (1 μM) for 4 h and labelled (a) (i) with or (a) (iv) without probe 1. Cells were pre-treated with (a) (ii) Z-VAD-FMK (50 μM) or (a) (iii) E-64 (50 μM) inhibitor 1 h before the probe 1 labelling. (b) Quantification of the change in GFPS fluorescence intensity after rhodamine photobleaching in both unbleached control region and rhodamine bleached region (ROI), using acceptor photo-bleaching method. Error bar represents the s.e.m for n=10 cells (*P<0.00001). Scale bar, 10 μm. a.u., arbitrary units.
as §1
Labelling of active caspases in apoptotic cells with FABP: After 24 h of transfection, cells were treated with STS (1 μM) drug or TRAIL (1 μg/ml) for apoptotic induction and incubated for 2, 4, 6 and 8 h at 37° C. in a humidified atmosphere of 5% CO2/95% air. Cells were gently scraped off from the surface at the end of apoptotic induction and centrifuged at 3000 rpm for 5 min. The cell pellet was resuspended in 300 μL of fresh DMEM containing 1 μM of probe for probe 2 and incubated for additional 2 h at 37° C. in a humidified atmosphere of 5% CO2. Cells were again centrifuged at 3000 rpm for 5 mins, and the supernatant was decanted. Cells were washed with 1×PBS, thrice finally resuspended in 20 μL of 1×PBS. The cell suspension was put on a slide, and a coverslip was placed over it. It was left for air drying. Slides were then imaged for GFP, FRET and rhodamine fluorescence signals under confocal microscopy.
Inhibitor assay: Cells were pre-treated with 50 μM of Z-VAD-FMK or Q-VD-OPh or E-64 inhibitor 1 h before probe 1 labelling and incubated for 1 h at 37° C. in a humidified atmosphere of 5% CO2. Cells were gently scraped off from the surface at the end of inhibitor treatment and centrifuged at 3000 rpm for 5 min Cells were then labelled with the probe 1 as described in the previous section.
Fluorescence imaging studies, FRET procedure: Images were collected on Zeiss LSM710 confocal microscope with 25 mW argon laser using Zen10 software. The laser was tuned to lines at 488 nm (excitation laser for GFPspark) and 561 nm (excitation laser for rhodamine) Cells were examined with a 40× 1.3 NA Zeiss oil immersion objective and 2.4× zoom. Images were collected in the three channels; GFP channel, argon laser tuned at 488 nm with 2% laser intensity and fluorescence emission was collected in emission range of 490-550 nm; rhodamine channel, argon laser tuned to 561 nm laser with 2% laser intensity and fluorescence emission was collected in range 550-650 nm and FRET channel with excitation laser of GFPSPARK channel and emission range of rhodamine channel. […]

In the case of Rh-DEVD-FMK [probe 2], the “rise in GFP intensity after rhodamine photobleaching in ROI” value in experiment [1] (probe 1 μM) was 68 a.u. In addition, the “calculated FRET efficiency” value in experiment [1] (probe 1 μM 2 h, acceptor photobleaching) is 35%.
As for `CN[C@@H]1C[C@H]2O[C@@](C)([C@@H]1OC)n1c3ccccc3c3c4c(c5c6ccccc6n2c5c31)C(=O)NC4` [STS, staurosporine], the “percentage rise in the CFP/YFP intensity ratio” value in experiment [2] (CFP-DEVDR-YFP plasmid, from 8 h of STS treatment) is on record as 47%. Also, in experiment [2] (STS 1 μM, live cell imaging), the “time of caspase-3/7 activation after treatment” value was in the range of 10 to 12 h. Further, in experiment [3], the “cleaved caspase-3 p17 fragment in immunoblotting” value is “detected”.
`CC(C)C[C@H](NC(=O)[C@H]1O[C@@H]1C(=O)O)C(=O)NCCCCN=C(N)N` [E-64]: in experiment [4], the “effect of inhibitor on FRET signal” value is reported as “abolished” and the “signal in Rh channel in presence of inhibitor” value is on record as “sharp, intense punctate labelling was observed”.
